Common to all, as to test: inhibition of tumour cell growth, NCI panel, 48 h
The subject of assay [1] is OVCAR-3 ovarian.
For assay [2], the system named is COLO 205 colon.
In assay [3] the test system is NCI-H23 lung.
Assay [4] deals with A498 renal.
The subject of assay [5] is UACC-62 melanoma.
For assay [6], the system named is UACC-257 melanoma.
The test system of assay [7] is SN12C renal.
Assay [8] relates to SF-539 CNS.
Assay [9] relates to MALME-3M melanoma.
Assay [10] has as its system MCF7 breast.

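Exposure lasted 48 hours, with cells grown in 96-well plates and compounds tested at five concentrations. GI50 marks 50% less growth. TGI marks complete inhibition of growth.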

As for `COc1ccc(-c2nc(-c3nc4ccc(F)cc4[nH]3)cc3c2[nH]c2ccccc23)cc1`, the GI50 in assay [1] is 2230 nM; in assay [2], 2100 nM; in assay [3], 3010 nM; in assay [4] it was 1920 nM; in [5] it was 1860 nM; in assay [6], 2010 nM. The GI50 in assay [7] was 2970 nM; in assay [8], 2800 nM; in [9] it was 2330 nM; in assay [10], 2530 nM. For the same compound, the TGI in [1] was 5010 nM; in assay [2], 4710 nM; in assay [3], 10900 nM; in [4], 9700 nM; in [5] it was 4250 nM; in assay [6] it was 4800 nM. For the same compound, the TGI is above 100000 nM in [7], 9330 nM in [8], 8990 nM in assay [9] and above 100000 nM in [10].
In the case of `CN(C(=O)C1CCCCC1)c1ccccc1I(=O)=O`, the GI50 in [1] was 30500 nM; in assay [2], 14600 nM; in assay [3], 45200 nM; in [4] it was 52100 nM; in [5], 72400 nM; in assay [6], 63600 nM. For the same compound, the GI50 was 79400 nM in [7], 39200 nM in [8], 14600 nM in [9] and 43700 nM in assay [10]. The TGI is above 100000 nM in [1]; 29800 nM in [2]; above 100000 nM in assay [3]; above 100000 nM in [4]; above 100000 nM in assay [5]; above 100000 nM in assay [6]. Besides, the TGI in assay [7] was above 100000 nM; in [8], above 100000 nM; in assay [9] it was 30900 nM; in assay [10], above 100000 nM.
Regarding `Cc1nc2sc(C(=O)Nc3cccc4ccccc34)c(N)c2cc1C(C)O` (centres undefined), the GI50 is 155 nM in assay [1]; 234 nM in assay [2]; 394 nM in assay [3]; 75.6 nM in assay [4]; 243 nM in assay [5]; above 50000 nM in assay [6]. For the same compound, the GI50 in assay [7] was 425 nM; in assay [8], 155 nM; in assay [9], 265 nM; in assay [10], 170 nM. Moreover, the TGI is 7640 nM in assay [2]; above 50000 nM in assay [3]; 1020 nM in assay [4]; above 50000 nM in assay [5]; above 50000 nM in assay [6]; above 50000 nM in assay [7]. Further, the TGI in assay [8] was 968 nM; in assay [9] it was above 50000 nM; in [10], above 50000 nM.
Consider `Cc1ccc(S(=O)(=O)N(C)C)cc1[N+](=O)[O-]`, for which the GI50 in assay [1], in [2], in [3], in [4], in [5] and in assay [6] was above 100000 nM throughout. Also, the GI50 in [7], in assay [8], in [9] and in [10] was above 100000 nM in each case. The TGI in assay [1], in assay [2], in assay [3], in assay [4], in assay [5] and in [6] was above 100000 nM throughout. Also, the TGI in assay [7], in assay [8], in assay [9] and in [10] was above 100000 nM in each case.
For the compound `Brc1c[n+](Cc2ccc3ccccc3c2)cn1Cc1ccc2ccccc2c1`, the GI50 in assay [1] is 1410 nM; in [2], 1310 nM; in assay [3] it was 1350 nM; in [4] it was 1880 nM; in assay [5], 1240 nM; in assay [6], 1760 nM. Besides, the GI50 in [7] was 1520 nM; in [8], 1560 nM; in assay [9], 1220 nM; in [10] it was 1590 nM. Also, the TGI was 2860 nM in assay [1]; 3160 nM in [2]; 3180 nM in [3]; 5090 nM in assay [4]; 2580 nM in assay [5]; 4120 nM in assay [6]. Further, the TGI in [7] stood at 2940 nM; in assay [8], 3040 nM; in assay [9] it was 2710 nM; in assay [10], 3390 nM.
Consider `O=C(NNc1nc2cc(F)ccc2n2c(CN3CCOCC3)ccc12)c1ccccc1`, for which the GI50 in [1] was 242 nM; in assay [2], 261 nM; in [3], 567 nM; in assay [4], 495 nM; in [5] it was 244 nM; in assay [6] it was 456 nM. In addition, the GI50 in assay [7] was 399 nM; in [8], 273 nM; in [9] it was 379 nM; in assay [10], 219 nM. Further, the TGI in assay [1] is 1650 nM; in assay [2], 1560 nM; in assay [3], 2700 nM; in [4], 2260 nM; in assay [5] it was 1140 nM; in assay [6] it was 3850 nM. Moreover, the TGI came to 2180 nM in assay [7], 1390 nM in [8], 1810 nM in [9] and 1310 nM in [10].

Values taken from PubChem BioAssay (NCI).
